The results in this text go back to patent US10968222B2, “2-azabicyclo hexane JAK inhibitor compound” (THERAVANCE BIOPHARMA R&D IP, LLC, priority 2018, dated 2021).

A word on the inhibition: it is the drop in the measured response relative to a control, in per cent. The low end stands for a response near the control, the high end for a response far below the control.

Data set [1] relates to BEAS-2B human lung epithelial cells. The data set can be described thus: CellTiter-Glo cell viability/cytotoxicity assay. The format is cell-based. Particulars: BEAS-2B cells; 48 h; 15% inhibition threshold. As for the experimental part: A CellTiter-Glo luminescent cell viability/cytotoxicity assay was carried out in BEAS-2B human lung epithelial cells (ATCC) under the normal growth condition.
Cells were grown at 37° C. in a 5% CO2 humidified incubator in 50% DMEM/50% F-12 medium (Life Technologies) supplemented with 10% FBS (Hyclone), 100 U/mL penicillin, 100 μg/mL streptomycin (Life Technologies), and 2 mM GlutaMAX (Life Technologies). On day 1 of the assay, cells were seeded at a 500 cells/well density in white 384-well tissue culture plates (Corning) with 25 μL medium, and were allowed to adhere overnight in the incubator. On day 2 of the assay, 5 μL of medium containing dose-responses of test compounds was added, and incubated at 37° C. for 48 h. 30 μL of CellTiter-Glo detection solution (Promega) was subsequently added, mixed on an orbital shaker for 5 min, and incubated for additional 10 min before being read on the EnVision reader. Luminescence signals were recorded and percent DMSO control values were calculated.
For dose-response analysis, percent DMSO control data were plotted vs. compound concentrations to derive dose-response curves by line connecting each data point. The concentration at which each curve crosses the 15% inhibition threshold is defined as CC15.

The target in a further data set is T1, CSF1R (Homo sapiens, UniProt P07333).
T1 construct: made in house; host or cells: E. coli BL21-derived host (T7 phage) or HEK-293 cells
T1 sequence (P07333 20-972): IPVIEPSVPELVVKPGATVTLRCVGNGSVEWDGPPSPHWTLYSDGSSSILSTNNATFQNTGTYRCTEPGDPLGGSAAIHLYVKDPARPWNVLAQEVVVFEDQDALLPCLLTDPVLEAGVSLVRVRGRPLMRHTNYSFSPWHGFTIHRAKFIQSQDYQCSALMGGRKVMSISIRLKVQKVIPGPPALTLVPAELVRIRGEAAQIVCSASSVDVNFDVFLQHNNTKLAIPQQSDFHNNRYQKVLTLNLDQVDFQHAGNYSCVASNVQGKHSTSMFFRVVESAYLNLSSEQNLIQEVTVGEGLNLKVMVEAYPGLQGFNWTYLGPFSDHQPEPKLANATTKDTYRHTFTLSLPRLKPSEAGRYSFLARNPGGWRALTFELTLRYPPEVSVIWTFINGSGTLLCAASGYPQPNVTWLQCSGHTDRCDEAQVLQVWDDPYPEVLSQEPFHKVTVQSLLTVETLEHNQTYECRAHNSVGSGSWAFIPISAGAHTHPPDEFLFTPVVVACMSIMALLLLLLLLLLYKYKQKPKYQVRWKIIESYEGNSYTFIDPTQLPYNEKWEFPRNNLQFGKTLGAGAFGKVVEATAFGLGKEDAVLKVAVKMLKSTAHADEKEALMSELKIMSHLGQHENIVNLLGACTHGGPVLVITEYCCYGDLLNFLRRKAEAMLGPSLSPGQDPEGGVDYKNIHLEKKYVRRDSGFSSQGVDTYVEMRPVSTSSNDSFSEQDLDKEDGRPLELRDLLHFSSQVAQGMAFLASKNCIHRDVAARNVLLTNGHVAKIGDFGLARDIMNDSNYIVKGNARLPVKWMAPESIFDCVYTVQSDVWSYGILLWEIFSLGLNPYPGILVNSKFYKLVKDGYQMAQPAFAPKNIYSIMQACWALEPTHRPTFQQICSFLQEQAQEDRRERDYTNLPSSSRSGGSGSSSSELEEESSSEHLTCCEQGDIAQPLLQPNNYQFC
Kind of data set: Kinome screen, CSF1R. The format is binding. As to conditions: screened at 1 μM. As for the experimental part: (§1) Compounds 1 and C-1 were screened against other kinases to evaluate their selectivity profile.
(§2) Kinase-tagged T7 phage strains were grown in parallel in 24-well blocks in an E. coli host derived from the BL21 strain. E. coli were grown to log-phase and infected with T7 phage from a frozen stock (multiplicity of infection=0.4) and incubated with shaking at 32° C. until lysis (90-150 minutes). The lysates were centrifuged (6,000×g) and filtered (0.2 μm) to remove cell debris. The remaining kinases were produced in HEK-293 cells and subsequently tagged with DNA for qPCR detection.
(§3) Streptavidin-coated magnetic beads were treated with biotinylated small molecule ligands for 30 minutes at room temperature to generate affinity resins for kinase assays. The liganded beads were blocked with excess biotin and washed with blocking buffer (SeaBlock (Pierce), 1% BSA, 0.05% Tween 20, 1 mM DTT) to remove unbound ligand and to reduce non-specific phage binding. Binding reactions were assembled by combining kinases, liganded affinity beads, and test compounds in 1× binding buffer (20% SeaBlock, 0.17×PBS, 0.05% Tween 20, 6 mM DTT). Test compounds were prepared as 40× stocks in 100% DMSO and directly diluted into the assay. All reactions were performed in polypropylene 384-well plates in a final volume of 0.04 ml. […] The kinase concentration in the eluates was measured by qPCR. […]

The next data set deals with T2, AURKA (Homo sapiens, UniProt O14965).
T2 construct: made in house; host or cells: E. coli BL21-derived host (T7 phage) or HEK-293 cells
T2 sequence (O14965 whole entry): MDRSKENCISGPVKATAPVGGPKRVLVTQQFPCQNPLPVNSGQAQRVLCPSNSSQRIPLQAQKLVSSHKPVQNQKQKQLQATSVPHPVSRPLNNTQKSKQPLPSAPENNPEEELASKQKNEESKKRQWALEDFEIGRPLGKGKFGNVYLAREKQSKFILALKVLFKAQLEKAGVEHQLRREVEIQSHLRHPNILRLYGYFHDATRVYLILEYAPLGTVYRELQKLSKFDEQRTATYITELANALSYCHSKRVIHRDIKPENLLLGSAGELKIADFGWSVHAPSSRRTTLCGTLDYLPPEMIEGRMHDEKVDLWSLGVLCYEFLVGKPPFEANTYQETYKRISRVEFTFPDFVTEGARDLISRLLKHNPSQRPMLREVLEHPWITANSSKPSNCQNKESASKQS
The data set can be described thus: Kinome screen, AURKA. The format is binding. As to conditions: screened at 1 μM. The procedure: as §1, §2, §3

In data set [2] the test system is IL-6 trans-signaling (IL6+sIL6Rα)-induced STAT3 phosphorylation in HRMECs. The data set can be described thus: Inhibition of IL-6 trans-signaling stimulated p-STAT3 in primary human retinal microvascular endothelial cells. The format is cell-based. As to conditions: HRMEC, 500 pM IL-6, 5 nM sIL6Rα, three independent experiments, read-out: pIC50, inhibition of IL-6 trans-signaling stimulated p-STAT3 (converted). As for the experimental part:
The cellular potency of the test compound toward inhibition of IL-6 trans-signaling (IL6+sIL6Rα)-induced STAT3 phosphorylation was measured in primary human retinal microvascular endothelial cells (HRMECs). IL-6 trans-signaling is mediated by IL-6 receptor beta (gp130), which is intracellularly coupled to JAK enzymes. Following gp130 engagement and dimerization, JAKs are activated and directly phosphorylate STAT3. Thus, this assay provides a measure of JAK cellular potency. HRMECs (Cell Systems, Kirkland Wash.) were plated in sterile, tissue culture treated, flat-bottom 96-well assay plates coated with Attachment Factor™ (Cell Systems, Kirkland Wash.) at a density of 1×10^4 cells per well. HRMEC cultures were grown for 3 days at 37° C., 95% humidity, 5% CO2 in culture media supplemented with 10% fetal bovine serum, Culture Boost™ growth factors, and BacOff® antibiotic (Cell Systems, Kirkland Wash.). […] To determine the inhibitory potency of the test compound, levels of p-STAT3 were measured using AlphaLISA® SureFire® Ultra™ p-STAT3 (Tyr705) assay kit (PerkinElmer) according to manufacturer's instructions. IC50 values were determined from inhibition curves of % p-STAT3 Alpha Signal vs test compound concentration (curve fitting conducted with GraphPad Prism 7.0). Data are expressed as pIC50 (negative log10(test compound concentration)).

For `CCc1cc(O)c(F)cc1-c1cc(F)c2c(-c3nc4c([nH]3)CCN(C(=O)[C@]35C[C@H]3CCN5)C4)n[nH]c2c1` [Compound 1, (1S,5R)-2-azabicyclo[3.1.0]hexan-1-yl(2-(6-(2-ethyl-5-fluoro-4-hydroxyphenyl)-4-fluoro-1H-indazol-3-yl)-6,7-dihydro-3H-imidazo[4,5-c]pyridin-5(4H)-yl)methanone], in data set [1], the CC15 was over 10000 nM and the pCC15 was under 5. Besides, at CSF1R, at 1 µM the inhibition was 98%. For the same molecule, at 1 µM the inhibition on AURKA was 26%. In addition, the IC50 in data set [2] was 501 nM.
